{
  "source": "patent US20220071985A1",
  "about": "“QUINOLINE DERIVATIVES FOR USE IN THE TREATMENT OR PREVENTION OF CANCER” (ABIVAX, priority 2018, published 2022)",
  "format_in_all_cases": "cell-based",
  "key": {"[1]": {"test_system": "CR3085 cell line (Large intestine/Colorectum)", "experiment": "CellTiter-Glo cell viability assay, CR3085", "conditions": "Homo sapiens", "protocol": "(§1) All cell lines are hyman primary cell lines cultured in DMEM/F12+10% FBS+supplemental growth factors, at 37° C. with 5% C02, as explained below. The cell lines are from large intestine/colorectum, stomach, liver, lung or pancreas (see table below). • DMEM/F12 (high glucose) (Gibco, Cat #11320033) • FBS (Cat #FND500, ExCell Bio) • CellTiter-Glo® Luminescent Cell Viability Assay (Cat # G7571, Promega. Stored at −20° C.). • 96 wells plate (Cat #3610, Corning) • DMEM/F12 medium (low glucose): 1:1 mixture of DMEM (low glucose) (Gibco, Cat #11885076) and F-12K (Gibco, Cat #21127022)\n(§2) Two types of cell lines have been tested for the compound 26, namely CR3085 (Large intestine/Colorectum) and GA0060 (stomach), as shown below.\n(§3) 1. Each well of a 96-well plate contains 90 μL of cell suspension with cells. The number of cells to be seeded is determined on the basis of a Cell Density Optimization Assay. 2. All 96-wells plates with cells are placed in an incubator overnight at 37° C. with 5% CO2.\n(§4) 3. Dilute ABX464 and add 10 μL/well of ABX464 at the concentrations indicated (see plate map below). The final volume is 100 μL/well.\n(§5) 4. Replace the old medium by pre-prepared fresh medium with ABX464 at the same concentrations indicated. The final volume is 100 μL/well.\n(§6) 5. Cells are observed under a microscope ensuring the cells treated with vehicle control are in good condition. 6. Add 50 μL of CellTiter-Glo® Reagent to each well. 7. Mix contents for 2 minutes on an orbital shaker to facilitate cell lysis. 8. Allow the plate to incubate at room temperature for 10 minutes to stabilize luminescent signals. 9. Record luminescence using an EnVision Multi Label Reader.\n(§7) Data analysis is performed using GraphPad Prism 7.0. To calculate IC50s, a dose-response curve is generated using a nonlinear regression model with a sigmoidal dose response. The formula of surviving rate is shown below, and the IC50s will be automatically generated by GraphPad Prism 7.0.\n(§8) LumNone treated-LumMedium control is set as 100%."}, "[2]": {"test_system": "PA0692 cell line (Pancreas)", "experiment": "CellTiter-Glo cell viability assay, PA0692", "conditions": "Homo sapiens, 168 h, 7 days drug treatment", "protocol": "as §1, §3, §4, §5\n(§9) 5. Cells are observed under a microscope ensuring the cells treated with vehicle control are in good condition. 6. Add 50 μL of CellTiter-Glo® Reagent to each well. 7. […] Record luminescence using an EnVision Multi Label Reader. […]"}, "[3]": {"test_system": "PA1266 cell line (Pancreas)", "experiment": "CellTiter-Glo cell viability assay, PA1266", "conditions": "Homo sapiens, 168 h, 7 days drug treatment", "protocol": "as §1, §3, §4, §5, §9"}, "LI0612 cell line (Liver)": {"test_system": "LI0612 cell line (Liver)", "experiment": "CellTiter-Glo cell viability assay, LI0612", "conditions": "Homo sapiens, 168 h, 7 days drug treatment", "protocol": "as §1, §3, §4, §5, §9"}, "LU2511 cell line (Lung)": {"test_system": "LU2511 cell line (Lung)", "experiment": "CellTiter-Glo cell viability assay, LU2511", "conditions": "Homo sapiens, 168 h, 7 days drug treatment", "protocol": "as §1, §3, §4, §5, §9"}, "[4]": {"test_system": "PA1405 cell line (Pancreas)", "experiment": "CellTiter-Glo cell viability assay, PA1405", "conditions": "Homo sapiens, 168 h, 7 days drug treatment", "protocol": "as §1, §3, §4, §5, §9"}, "[5]": {"test_system": "GA0060 cell line (Stomach)", "experiment": "CellTiter-Glo cell viability assay, GA0060", "conditions": "Homo sapiens", "protocol": "as §1, §2, §3, §4, §5, §6, §7, §8"}, "[6]": {"test_system": "CR0205 cell line (Large intestine/Colorectum)", "experiment": "CellTiter-Glo cell viability assay, CR0205", "conditions": "Homo sapiens, 168 h, 7 days drug treatment", "protocol": "as §1, §3, §4, §5, §9"}, "[7]": {"test_system": "CR3150 cell line (Large intestine/Colorectum)", "experiment": "CellTiter-Glo cell viability assay, CR3150", "conditions": "Homo sapiens, 168 h, 7 days drug treatment", "protocol": "as §1, §3, §4, §5, §9"}, "[8]": {"test_system": "PA3060 cell line (Pancreas)", "experiment": "CellTiter-Glo cell viability assay, PA3060", "conditions": "Homo sapiens, 168 h, 7 days drug treatment", "protocol": "as §1, §3, §4, §5, §9"}, "LU0387 cell line (Lung)": {"test_system": "LU0387 cell line (Lung)", "experiment": "CellTiter-Glo cell viability assay, LU0387", "conditions": "Homo sapiens, 168 h, 7 days drug treatment", "protocol": "as §1, §3, §4, §5, §9"}, "[9]": {"conditions": "168 h, CR3085, Large intestine/Colorectum, 7 days drug treatment, CellTiter-Glo"}, "[10]": {"conditions": "168 h, GA0060, Stomach, 7 days drug treatment, CellTiter-Glo"}},
  "note": "pIC50: −log10 of the molar value.",
  "data": [
    {"smiles": "FC(F)(F)Oc1ccc(Nc2ccc3cccc(Cl)c3n2)cc1", "note": "[ABX464, 8-Chloro-N-(4-(trifluoromethoxy)phenyl)quinolin-2-amine]", "values": [
      {"measurement": "pIC50", "setting": "[1]; [9]", "value": 7.10},
      {"measurement": "pIC50", "setting": "[2]", "value": 5.02},
      {"measurement": "pIC50", "setting": "[3]", "value": 5.46},
      {"measurement": "pIC50", "setting": "LI0612 cell line (Liver)", "value": 5.32},
      {"measurement": "pIC50", "setting": "LU2511 cell line (Lung)", "value": 5.15},
      {"measurement": "pIC50", "setting": "[4]", "value": 5.21},
      {"measurement": "pIC50", "setting": "[5]; [10]", "value": 6.22},
      {"measurement": "pIC50", "setting": "[6]", "value": 5.14},
      {"measurement": "pIC50", "setting": "[7]", "value": 6.06},
      {"measurement": "pIC50", "setting": "[8]", "value": 5.43},
      {"measurement": "pIC50", "setting": "LU0387 cell line (Lung)", "value": 5.02}
    ]},
    {"smiles": "FC(F)(F)c1ccc(Nc2ccc3cccc(Cl)c3n2)nc1", "note": "[Comparative compound 26, 8-chloro-N-(5-(trifluoromethyl)pyridin-2-yl)quinolin-2-amine]", "values": [
      {"measurement": "pIC50", "setting": "[1]; [9]", "value": 6.77},
      {"measurement": "pIC50", "setting": "[1]; cell line Large intestine/Colorectum CR3085, restated in text without unit", "value": 6.77},
      {"measurement": "pIC50", "setting": "[5]; [10]", "value": "< 5.00"},
      {"measurement": "pIC50", "setting": "[5]; cell line stomach GA0060, restated in text without unit", "value": "< 5.00"}
    ]}
  ]
}
